Experimental data: article PMC8728392, “Synthesis, Anticancer Assessment, and Molecular Docking of Novel Chalcone-Thienopyrimidine Derivatives in HepG2 and MCF-7 Cell Lines” (Oxidative Medicine and Cellular Longevity, 2021)

Experiments:
[1] = tested on: human breast cancer cell line (MCF-7); assay: MTT assay, cytotoxicity; format: cell-based; conditions: MCF-7; for survival percentage (mean ± SEM): 24 hours
Description: (§1) Cancer cell lines were manipulated according to the method described by Sigounas et al.. In this method, the cell lines were grown as adherent monolayers in T75 flasks with Dulbecco's modified Eagle's medium (DMEM) supplemented with 10% Fetal Bovine Serum (FBS), 2 mM L-glutamine, and 1% streptomycin/penicillin. The cells were left to grow in a CO2 incubator at 37°C, 5% CO2, and 95% humidity until their confluence.
(§2) The 3-[4,5-dimethylthiazol-2-yl]-2,5-diphenyltetrazolium bromide (MTT) colorimetric assay was used to examine the sensitivity of cells to tested compounds (as anticancer drugs), as previously described. This assay depends on the production of a purple formazan derivative from the yellow tetrazolium bromide (MTT) by mitochondrial succinate dehydrogenase in viable cells. The percentage of cell survival was calculated as follows: (1) Percentage of survival=O.D.treated cells/O.D.control cells×100.
(§3) For preliminary screening of the cytotoxicity of synthesized compounds 3a-g, cells exposed to DMSO were used as a control. Plotting the relationship between the survival score and the compound concentration and calculating the IC50 (the concentration required to inhibit cell viability by 50%) were performed for each test compound according to Li et al. in comparison with the reference standard anticancer agent, 5-FU.
(§4) The 3-[4,5-dimethylthiazol-2-yl]-2,5-diphenyltetrazolium bromide (MTT) colorimetric assay was used to examine the sensitivity of cells to tested compounds (as anticancer drugs), as previously described by Hussein et al. (2017). This assay depend on the production of a purple formazan derivative from the yellow tetrazolium bromide (MTT) by mitochondrial succinate dehydrogenase in viable cells. Briefly, after harvesting the cells with 0.25% trypsin, the cell lines were suspended in DMEM. Cells were seeded in 96-well microtiter plates at a concentration of 5×10^4 cell/well in a fresh medium and left to attach to the plates for 24 h before treatment with the tested compounds 3a-g. Test compounds were dissolved in dimethyl sulfoxide (DMSO). After 24 hours, cells were incubated with the appropriate concentration ranges of compounds, the wells were diluted to […] with fresh medium and incubation was continued for 24 hours. Three wells were used for each concentration. After 24 hours of treatment, 20 μl of MTT solution (5mg/ml) was added and subsequently the plates were further incubated for 4 hours to allow the viable cells to biotransform the yellow-colored MTT into purple formazan crystals. The optical density (O.D.) of each well was measured spectrophotometrically at […] with an enzyme-linked immunosorbent assay (ELISA) microplate reader (BioTek, EL-800, USA). The percentage of cell survival was calculated as follows: […]

[2] = tested on: human liver cancer cell line (HepG2); assay: MTT assay, cytotoxicity; format: cell-based; conditions: HepG2; for survival percentage (mean ± SEM): 24 hours
Description: as §1, §2, §3, §4

HepG2 cell line = assay: Cell cycle analysis (PI, flow cytometry); format: cell-based, human
Description: Cell cycle analysis was performed to decide if the newly synthesized thienopyrimidine derivatives arrested the cell cycle and at what phase of the cell cycle, the HepG2 and MCF-7 cell lines were arrested. The experiments were performed as previously described by Tolba et al.. HepG2 and MCF-7 cell lines were seeded and incubated with the tested compounds in 6-well plates. After incubation overnight, the cells were washed twice with ice-cold phosphate-buffered saline (PBS), detached by EDTA-trypsinization from the plates, harvested by centrifugation, fixed in ice-cold 70% (v/v) ethanol, and washed with phosphate-buffered saline (PBS, pH 7.2 ± 0.2). The cells were resuspended with 0.1 mg/ml RNase, stained with […] propidium iodide (PI), and analyzed by flow cytometry using a FACSCalibur flow cytometer (BD Biosciences, San Jose, CA). CellQuest software (Becton Dickinson) was used to determine the cell cycle distributions after incubation with 5-FU or tested compounds. Exposure of HepG2 and MCF-7 cell lines to these compounds could interfere with the normal cell cycle distribution.

Structure (SMILES)	survival percentage (mean ± SEM) ([1]; 4.8828125 μg/ml) [%]	survival percentage (mean ± SEM) ([1]; 9.765625 μg/ml) [%]	survival percentage (mean ± SEM) ([1]; 19.53125 μg/ml) [%]	survival percentage (mean ± SEM) ([1]; 39.0625 μg/ml) [%]	survival percentage (mean ± SEM) ([1]; 78.125 μg/ml) [%]	survival percentage (mean ± SEM) ([1]; 156.25 μg/ml) [%]	survival percentage (mean ± SEM) ([1]; 312.5 μg/ml) [%]	survival percentage (mean ± SEM) ([1]; 625 μg/ml) [%]	survival percentage (mean ± SEM) ([1]; 1250 μg/ml) [%]	survival percentage (mean ± SEM) ([1]; 2500 μg/ml) [%]	survival percentage (mean ± SEM) ([1]; 5000 μg/ml) [%]	survival percentage (mean ± SEM) ([1]; 10000 μg/ml) [%]	survival percentage (mean ± SEM) ([2]; 4.8828125 μg/ml) [%]	survival percentage (mean ± SEM) ([2]; 9.765625 μg/ml) [%]	survival percentage (mean ± SEM) ([2]; 19.53125 μg/ml) [%]	survival percentage (mean ± SEM) ([2]; 39.0625 μg/ml) [%]	survival percentage (mean ± SEM) ([2]; 78.125 μg/ml) [%]	survival percentage (mean ± SEM) ([2]; 156.25 μg/ml) [%]	survival percentage (mean ± SEM) ([2]; 312.5 μg/ml) [%]	survival percentage (mean ± SEM) ([2]; 625 μg/ml) [%]	further results
CCOC(=O)Cn1c(SCC(=O)Nc2ccc(C(=O)/C=C\c3cccc([N+](=O)[O-])c3)cc2)nc2sc3c(c2c1=O)CCN(C(=O)OCC)C3 [Compound 3c, Ethyl (Z)-3-(2-Ethoxy-2-oxoethyl)-2-((2-((4-(3-(3-nitrophenyl)acryloyl)phenyl)amino)-2-oxoethyl)thio)-4-oxo-3,5,6,8-tetrahydropyrido[4′,3′:4,5]thieno[2,3-d]pyrimidine-7(4H)-carboxylate]	149.3 ± 0.082	135.4 ± 0.066	140.3 ± 0.197	132.0 ± 0.136	121.5 ± 0.183	110.9 ± 0.063	71.1 ± 0.156	11.3 ± 0.026	7.4 ± 0.003	6.4 ± 0.003	6.4 ± 0.007	5.9 ± 0.002	91.5 ± 0.013	81.6 ± 0.027	69.8 ± 0.027	63.0 ± 0.030	62.4 ± 0.051	22.1 ± 0.011	21.1 ± 0.004	20.6 ± 0.003	survival percentage (mean ± SEM) ([2]; 1250 μg/ml): 20.1 ± 0.004%; survival percentage (mean ± SEM) ([2]; 2500 μg/ml): 19.0 ± 0.002%; survival percentage (mean ± SEM) ([2]; 5000 μg/ml): 18.8 ± 0.001%; survival percentage (mean ± SEM) ([2]; 10000 μg/ml): 18.0 ± 0.001%; G1 phase cell population (HepG2 cell line): significant increase; %DIP G1 (HepG2 cell line; flow cytometry panel): 55.32%; melting point: 189 to 190 °C
CCOC(=O)N1CCc2c(sc3nc(SCC(=O)Nc4ccc(C(=O)/C=C\c5cc(OC)c(OC)c(OC)c5)cc4)[nH]c(=O)c23)C1 [Compound 3e, Ethyl (Z)-4-Oxo-2-((2-oxo-2-((4-(3-(3,4,5-trimethoxyphenyl)acryloyl)phenyl)amino)ethyl)-thio)-3,5,6,8-tetrahydropyrido[4′,3′:4,5]thieno[2,3-d]pyrimidine-7(4H)-carboxylate]	147.1 ± 0.051	131.6 ± 0.132	123.4 ± 0.070	129.1 ± 0.033	109.2 ± 0.084	104.2 ± 0.026	61.5 ± 0.112	38.0 ± 0.030	27.8 ± 0.021	17.9 ± 0.002	16.0 ± 0.000	15.9 ± 0.002	127.5 ± 0.033	114.3 ± 0.141	91.9 ± 0.060	45.1 ± 0.072	21.4 ± 0.073	21.1± 0.012	19.8 ± 0.005	18.9 ± 0.001	survival percentage (mean ± SEM) ([2]; 1250 μg/ml): 18.4 ± 0.003%; survival percentage (mean ± SEM) ([2]; 2500 μg/ml): 17.4 ± 0.002%; survival percentage (mean ± SEM) ([2]; 5000 μg/ml): 16.8 ± 0.003%; survival percentage (mean ± SEM) ([2]; 10000 μg/ml): 14.1 ± 0.002%; cell population in G2/M compared with control cells (HepG2 cell line): substantial increase; cell population in pre-G1 phases compared with control cells (HepG2 cell line): significant increase; melting point: 167 to 168 °C
CCOCc1nc2sc3c(c2c(=O)n1CC(=O)Nc1ccc(C(=O)/C=C\c2cccc([N+](=O)[O-])c2)cc1)CCN(C(=O)OCC)C3 [Compound 3f, Ethyl (Z)-2-(Ethoxymethyl)-3-(2-((4-(3-(3-nitrophenyl)acryloyl)phenyl)amino)-2-oxoethyl)-4-oxo-3,5,6,8-tetrahydropyrido[4′,3′:4,5]thieno[2,3-d]pyrimidine-7(4H)-carboxylate]	149.7 ± 0.082	132.2 ± 0.214	127.7 ± 0.180	122.6 ± 0.121	120.2 ± 0.150	119.7 ± 0.182	92.0 ± 0.141	67.1 ± 0.086	47.5 ± 0.181	6.2 ± 0.004	5.1 ± 0.003	4.6 ± 0.002	149.7 ± 0.200	149.1 ± 0.106	144.7 ± 0.140	119.1 ± 0.122	115.9 ± 0.157	112.0 ± 0.460	77.8 ± 0.071	15.3 ± 0.005	cytotoxic activity (in words) [1]: lowest cytotoxic activity; cytotoxic activity (in words) [2]: lowest cytotoxic activity; survival percentage (mean ± SEM) ([2]; 1250 μg/ml): 12.6 ± 0.019%; survival percentage (mean ± SEM) ([2]; 2500 μg/ml): 11.7 ± 0.009%; survival percentage (mean ± SEM) ([2]; 5000 μg/ml): 11.6 ± 0.002%; survival percentage (mean ± SEM) ([2]; 10000 μg/ml): 10.7 ± 0.004%; melting point: 178 to 179 °C
